The source of these data is patent US20190290656A1, “PT(IV) PRODRUGS” (YISSUM RESEARCH DEVELOPMENT COMPANY OF THE HEBREW …, priority 2015, published 2019).

One series concerns A2780cisR cells. Put plainly: MTT cytotoxicity assay, A2780cisR (cisplatin resistant). In kind it is cell-based, human. Conditions: A2780cisR, 72 h exposure, MTT; read-out: IC50 (median growth inhibitory concentration). In a few lines:
(§1)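 Platinum(IV) complexes from fresh DMSO stocks, final 0.5% DMSO in medium; cisplatin and oxaliplatin dissolved fresh in 0.9% NaCl. A2780, cisplatin-resistant A2780cisR and A498 cells tested by MTT in triplicate cultures.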

The test system of a further series is nine cancer cell lines. Kind of series: MTT cytotoxicity, over the nine cancer cell lines. Conditions: read-out: average IC50 values for the nine cancer cell lines; mean over nine cell lines, 72 h MTT.
A short description of series [1]: octanol/water partition, shake-flask method. Format: physicochemical. How it is done:
To quantify the hydrophobicity of the platinum complexes, partition coefficients (log P) values for octanol/water partition were measured using the shake-flask method.

The subject of series [2] is Lewis lung carcinoma (LLC). Kind of series: In vivo efficacy study, Lewis lung carcinoma mouse model. Also noted: species or system C57BL mice. Conditions: day 7-14. On the procedure: A preliminary in vivo efficacy study was carried out on a mouse model (see Table 3 below):
Lewis lung carcinoma (LLC) was implanted i.m. (2·10^6 cells inoculum) into the right hind leg of 8-week old inbred C57BL mice (24±3 g body weight). Chemotherapy was delayed until the tumor became visible (day 7).

For a further series, the system named is MCF-7 cells. Put plainly: MTT cytotoxicity assay, MCF-7. Conditions: MCF-7, 72 h exposure, MTT; read-out: IC50 (median growth inhibitory concentration). In kind it is cell-based, human. How it is done:
Cisplatin (CDDP) and oxaliplatin (OXP) were dissolved just before the experiment in a 0.9% NaCl solution.
Human prostate adenocarcinoma (PC3) cells were obtained from European Collection of Cell Cultures (ECACC, Salisbury, UK). Human ovarian cancer cell lines A2780 and its cisplatin resistant variant, A2780cisR, were kindly provided by Prof.
Triplicate cultures were established for each treatment.

The test system of another series is BxPC3 cells. Kind of series: MTT cytotoxicity assay, BxPC3. Format: cell-based, human. Conditions: BxPC3, 72 h exposure, MTT; read-out: IC50 (median growth inhibitory concentration). In general terms: Tetrazolium dyes change colour on reduction, which living cells bring about.
In another series the test system is A2780 cells. Kind of series: MTT cytotoxicity assay, A2780. In kind it is cell-based, human. Conditions: A2780, 72 h exposure, MTT; read-out: IC50 (median growth inhibitory concentration). In a few lines:
as §1

The subject of series [3] is PSN-1 cells. Kind of series: Nuclear DNA fragmentation ELISA, PSN-1. Conditions: 48 h, IC50. Format: cell-based, human. On the procedure:
FIGS. 13A-13B provide: FIG. 13A) Cytochrome c release. […] FIG. 13B) Nuclear DNA fragmentation. […] Quantitative estimation of DNA fragmentation was obtained with an ELISA test. Data are the means of five independent experiments. Error bars indicate SD.
After 48 h of treatment a roughly 20-fold increase in histone-DNA formation was detected with 3a with respect to controls.
On the technique in general: An ELISA detects its analyte on a solid surface through an enzyme-linked reagent.

The subject of the next series is 2008 cells. Put plainly: Glycolysis (Mito-ID O2 sensor), 2008. Format: cell-based, human. The following applies: IC50 concentrations, 24 h. On the procedure: (§2) Glycolysis. The cellular glycolytic activity was assessed using the Mito-ID® O2 Extracellular Sensor Kit according to the manufacturer's instructions (Enzo Life Sciences, Farmingdale, N.Y.). Briefly, PSN-1 cells (15·10^3 per well) were seeded in 96-well plates. After 24 h, cells were treated with Mito-ID® O2 Sensor Probe Solution containing the tested compounds at the appropriate concentration. Fluorescence was estimated using a plate reader (Fluoroskan Ascent FL, Labsystem, Finland) at 350 nm (excitation) and 610 nm (emission).
(§3) Based on the above findings, we investigated the effects determined by derivatives 3a and 3b on 2008 and PSN-1 cancer cell aerobic glycolysis and mitochondria function.
(§4) However, these effects were magnified in PSN-1 cells, having reduction of cellular glycolytic activity of about 36 and 20% for 3a and 3b, respectively. […] This latter result could be explained tacking into consideration that the reference compound [Pt(DACH)(56Phen)] itself, that is also released upon reduction of 3a and 3b, is effective in hampering cellular glycolysis in both tested cancer cell lines. The difference between 3a and 3b might be attributed to the added effect of DCA.

Series [4] is described as follows: Stability in cell culture medium DMEM (NMR). Format: physicochemical. Conditions: 37° C. How it is done:
A solution 2.0 mM of 3a (Scheme 4) in DMEM was kept at 37° C. for 3 days. NMR measurements were performed every day.
A phosphate buffer solution is an oversimplified model for medium of biological relevance in order to test the stability of a drug candidate. […] Thus, as following step, we evaluated the stability of 3a in cell culture medium DMEM, where the biomolecules present can affect the overall degradation process. A 2.0 mM solution of 3a in DMEM monitored by ^1H NMR spectroscopy for 3 days at 37° C. (FIG. 8).

The subject of series [5] is PSN-1 cells. Put plainly: Glycolysis (Mito-ID O2 sensor), PSN-1. In kind it is cell-based, human. The following applies: IC50 concentrations, 24 h. How it is done: as §2, §3, §4
Series [6] can be described thus: Stability in phosphate buffer (NMR). Format: physicochemical. Conditions: phosphate buffer pH 7, 37° C. On the procedure: A solution 2.0 mM of 3a (Scheme 4) in sodium phosphate buffer (50 mM, pH=7) was kept at 37° C. for 3 days. NMR and HPLC measurements were performed every day.
A 2.0 mM solution of 3a in phosphate buffer at pH=7 was kept at 37° C. in order to assay its stability by mean of NMR spectroscopy (FIG. 7). […] The signal at 7.40 ppm was assigned to the amidic proton. The signals at 7.18 and 6.48 belong to the aromatic ring of the coordinated phenylbutyrate. The large difference in chemical shifts between the 2 ortho protons of the phenyl ring and the 3 meta and para protons, coupled with the unusually low chemical shifts for the aromatic ortho protons, indicates a strong intramolecular interaction with the phenanthroline. Finally, the peak at 6.37 belongs to the coordinated DCA.

Where “and” joins values, the source holds several entries; their conditions need not be identical. Equal values may be shown once.

In the case of `[NH2][Pt]([NH2])([Cl])[Cl]` [CDDP, Cisplatin, reference compound], the IC50 was 13.8 ± 0.2 µM in the series on A2780cisR cells; 9.18 µM and 9.9 µM in the series on nine cancer cell lines; 17.4 ± 0.2 µM with MCF-7 cells; 11.4 ± 1.14 µM with BxPC3 cells; 2.8 ± 0.2 µM with A2780 cells. In addition, in series [1], the lipophilicity (Log P) – broadly, a log measure of how a compound divides between an organic and an aqueous phase – is −2.25 ± 0.04. Also, the “Average tumor weight (mean ± SD, g)” value in series [2] (daily dose 1.5 mg kg^-1 i.p.) amounted to 0.150 ± 0.07 g; in [2] (daily dose 3 mg kg^-1 i.p.), 0.044 ± 0.07 g. The “Inhibition of tumor growth (%)” value in [2] (daily dose 1.5 mg kg^-1 i.p.) was 73.35%; in series [2] (daily dose 3 mg kg^-1 i.p.) it was 92.18%.
With “c,c,t,t,c,c-[(DACH)(56Phen)(PhBu)Pt(μ-OOC—(CH2)2—CONH(CH2)3COO)—Pt(DCA)(NH3)2 (Cl2)](TFA)2 [Compound 3a]”, the “fold increase in histone-DNA formation with respect to controls” value in the series on PSN-1 cells [3] is given as “roughly 20 fold”. Besides, in the series on 2008 cells, the “reduction of glycolysis processes compared with untreated control cells” value is listed as “about 25%”. The “Pt(IV)-phen moiety reduced” value in series [4] (after 1 day) was “about 22%”; in series [4] (after 2 days), 39%; in series [4] (after 3 days), 58%. Moreover, the “reduction of cellular glycolytic activity” value with PSN-1 cells [5] is listed as “about 36%”. In addition, the “Pt(IV)-phen reduced” value was “about 9%” in [6] (after 2 days), 10% in [6] (after 3 days) and “approximately 6.5%” in series [6] (after one day). In [6] (after a day), the “Pt(IV)-cisPt NMR signal (1101 ppm) relative to Pt(IV)-phen signal (703 ppm)” value turned out to be 15%.
